Patent publication US20240343906A1, “POLOXAMER-STABILIZED REAGENTS” (Promega Corporation, priority 2023, published 2024)

Tests used:
[1] = Solubility analysis: clarity by optical density at 850 nm (OD850) after reconstitution; type: physicochemical; conditions: lyophilized, reconstituted in DPBS pH 7.0, 1 mM
Description: FIG. 4. Solubility of dye-chloroalkyl ligand conjugates following lyophilization in the presence of various excipients and reconstitution in DPBS pH 7.0.
Vials of lyophilized Chloroalkyl-JANELIA FLUOR 552 (CA-JF 552) and Chloroalkyl-JANELIA FLUOR 669 (CA-JF 669) formulated prior to lyophilization with various excipients were separately dissolved in 100 μL aqueous buffer to a final 1 mM concentration. 70 μl of the CA-JF 552 and CA-JF 669 solutions were then transferred to wells of a transparent 96-well plate for clarity analysis using Optical Density absorbance measurements at 850 nm [Bandwidth 3.5 nm] (OD850) on Tecan Spark plate reader (FIGS. 4 and 5). Target absorbance limit for clarity measurements was determined using a known turbidity sample of material similarly formulated with poloxamer to assess solubility of the ligand.
A clarity target of <0.1 was utilized.

[2] = Reconstitution of lyophilized P-407 formulated cakes in 100 μL DPBS (visual appearance); type: physicochemical; conditions: 100 nmols ligand, 100 μL DPBS (JF-552: after 4 h)
Description: The 1 μmol JF Dye HaloTag Ligand (JF-669 or JF-552) was dissolved in ca. 3.5 mL EtOH, followed by transferring the resulting solution to the melted P-407. The resulting mixture was rotated at ca. 65° C. to afford a homogeneous solution. […]

Compound | clarity (OD850) versus clarity target <0.1 ([1]; excipient cyclodextrin) | clarity (OD850) versus clarity target <0.1 ([1]; excipient pullulan) | appearance after reconstitution ([2]; 3-mg-P407 formulation) | appearance after reconstitution ([2]; 9-mg-P407 formulation)
C[Si]1(C)C2=CC(=[N+]3CCC3)C=CC2=C(c2c(F)c(C(=O)NCCOCCOCCCCCCCl)c(F)c(F)c2C(=O)[O-])c2ccc(N3CCC3)cc21 [JF-669, Chloroalkyl-JANELIA FLUOR 669] | unable to hit clarity target | unable to hit clarity target | hazy suspension | clear solution
Chloroalkyl-JANELIA FLUOR 552 [JF-552] | unable to hit clarity target | unable to hit clarity target | hazy suspension | clear solution
